Usually MIC stands for the least concentration at which growth counts as inhibited. As usually defined, the AUC is the area under the concentration-time curve, a measure of exposure. A high value points to more exposure. For orientation: clearance means the rate of elimination divided by the concentration. A low value points to inefficient removal.

Converted amounts (≈) assume the structure as drawn.

We go through two compounds from patent US20230110378A1, “MONOBACTAM COMPOUND AND USE THEREOF” (EVOPOINT BIOSCIENCES CO., LTD., priority 2019, published 2023).

Data set [1] concerns Klebsiella pneumoniae HDBKP 30006. Nature of the data set: Minimum inhibitory concentration (broth microdilution, CLSI). Particulars: HDBKP30006. Type of data set: cell-based. Summed up:
(§1)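 Bacteria from fresh TSA plates (MA for P. mirabilis) were suspended to OD600 ~0.15 and diluted in 1.02×CAMHB to 2×10^5 CFU/mL. Compounds were tested by 2-fold dilution from a top concentration of 16, 32 or 64 μg/mL. After 20-24 h at 35 ± 2 °C, MIC was read visually per CLSI.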
(In broth dilution the organism is exposed to a series of concentrations in liquid medium.)

In data set [2] the test system is Pseudomonas aeruginosa HDBPA 5679. The description is as above. It is filed as cell-based. The note with it: HDBPA5679. The method, boiled down: as §1
Data set [3] has as its system Enterobacter cloacae HDBECL 30030. Described as above. It is filed as cell-based. The note with it: HDBECL30030. Summed up: as §1
Data set [4] has as its system Klebsiella pneumoniae HDBKP 9153. The data set is described as above. It is filed as cell-based. The note with it: HDBKP9153. Summed up:
as §1

In data set [5] the test system is Klebsiella pneumoniae HDBKP 9249. Described as above. Type of data set: cell-based. Particulars: HDBKP9249. The method, boiled down:
as §1

The subject of data set [6] is metallo-β-lactamase-expressing Acinetobacter baumannii strain ABA-0003YK. Described as above. The note with it: read-out: MIC A. baumannii ABA-0003YK. Type of data set: cell-based. Summed up:
as §1

Data set [7] concerns Escherichia coli HDBEC 30016. The description is as above. It is filed as cell-based. The note with it: HDBEC30016. Summed up:
as §1

For data set [8], the system named is Escherichia coli HDBEC 30048. Described as above. It is filed as cell-based. The note with it: HDBEC30048. The method, boiled down: as §1
In data set [9] the test system is Proteus mirabilis HDBPM 40. The data set is described as above. Type of data set: cell-based. Particulars: HDBPM40. The method, boiled down:
as §1

Data set [10] concerns Escherichia coli HDBEC 30008. The description is as above. The note with it: HDBEC30008. It is filed as cell-based. The method, boiled down:
as §1

The nature of data set [11]: Pharmacokinetic evaluation of compounds in mice (tail vein injection). Type of data set: in vivo, Male CD-1 (ICR) mice. Particulars: CD-1 (ICR), mouse, male CD-1 mice, intravenous injection, dose 5 mg/kg, plasma. Here is the method:
Male CD-1 (ICR) mice were purchased and then acclimatized in this laboratory for at least 3 days. […] Blood samples were collected from the saphenous vein at 0.0833 h, 0.25 h, 0.5 h, 1 h, 2 h, 4 h, 8 h and 24 h following the tail vein injection administration. The volume of blood collection at each time point of the blood collection was about 30 μL. The blood samples were placed in centrifuge tubes containing anticoagulant EDTA-K2 and centrifuged at 3,200 g at 4° C. for 10 min, and then the upper plasma samples were collected and preserved in a freezer at −70±10° C. for later tests.
1) To 1.5 mL centrifuge tubes were added a 6 μL aliquot of an unknown sample, a standard curve, a quality control, a dilution quality control, single blank and double blank samples.
2) Each sample (except for the double blank sample) was treated with 120 μL of IS1-containing precipitant (the double blank sample was treated with 120 μL of pure MeOH for precipitation), and the mixtures were well mixed (for at least 15 s) using a vortexer and centrifuged at 12,000 g at 4° C. for 15 min.
3) 60 μL of the supernatants were transferred to a 96-well plate and centrifuged at 4° C. at 3220 g for 5 min, and 6 p L of the supernatants were injected for LC-MS/MS quantitative analysis.
1) The 1 h-plasma samples from the 3 mice were diluted 10-fold: 2 p L of the samples were added to 18 p L of blank matrix.
2) The 0.0833 h to 0.5 h-plasma samples from the 3 mice were diluted 100-fold: 18 μL of blank matrix was added to 2 p L of the samples to obtain 10-fold diluted samples. 2 μL of the 10-fold diluted samples were added to 18 p L of blank matrix to obtain 100-fold diluted analysis samples.
LC-MS/MS analysis conditions: chromatography column: ACQUITY UPLC HSS T3 (2.1×50 mm, 1.8 μm); column temperature: 50° C.; mobile phase A: a 0.1% aqueous solution of formic acid; mobile phase B: a 0.1% solution of formic acid in acetonitrile; flowrate: 0.65 mL/min. Internal standard: verapamil (100 ng/mL)
The concentration of the compounds in plasma was measured by LC-MS/MS (LC-MS/MS-AK_Q-Trap 6500). The pharmacokinetic software WinNonlin [version: Phoenix™ WinNonlin®6.3, manufacturer: Pharsight Corporation] was used to calculate pharmacokinetic parameters (V-Noncompartmental model 201).

For the compound `CC(C)(O/N=C(\C(=O)N[C@@H]1C(=O)N(S(=O)(=O)O)[C@@H]1CNC(=O)c1cc([C@@H]2CCN(C(=O)c3cc(=O)c(O)cn3O)C2)no1)c1csc(N)n1)C(=O)O` [Compound I-7], the MIC in [1] was more than 16 µg/mL; in [2], less than 4 µg/mL; in data set [3], less than 4 µg/mL; in [4], less than 4 µg/mL; in [5], more than 16 µg/mL; in data set [6] it was less than 4 µg/mL. The MIC in data set [7] was 4 to 8 µg/mL (≈ 5.21 to 10.4 µM); in [8], less than 4 µg/mL; in [9], less than 4 µg/mL; in data set [10] it was less than 4 µg/mL. The same compound displayed an AUC in data set [11] of 4240 ng·h/mL. In addition, in data set [11], the clearance was found to be 19.6 mL/min/kg. Besides, the half-life in [11] (read-out: T½ (converted)) is 16.2 min. In addition, the Vd in data set [11] (read-out: Vss) was 0.48 L/kg.

Consider `C[n+]1cc(-c2ncc(C(=O)NC[C@@H]3[C@H](NC(=O)/C(=N\OC(C)(C)C(=O)O)c4csc(N)n4)C(=O)N3S(=O)(=O)O)s2)cn1CCCNC(=O)c1ccc(O)c(O)c1Cl` [Compound I-33], for which the MIC in data set [1] was 8 to 16 µg/mL; in [2], less than 4 µg/mL; in data set [3], less than 4 µg/mL; in data set [4], less than 4 µg/mL; in data set [5], 4 to 8 µg/mL; in data set [6], less than 4 µg/mL. In addition, the MIC in data set [7], in [8], in data set [9] and in data set [10] was less than 4 µg/mL each time.
